Where a name gives a salt, the structure may show the parent alone.
Columns and labels:
CDK2/cyclin A = molecular target: T1, CDK2/cyclin A (Homo sapiens, UniProt P24941); assay: Inhibition of CDK2/cyclin A retinoblastoma kinase activity (Ki; % inhibition); type: biochemical; conditions: for Ki: apparent Ki, CDK2/cyclin A, Rb substrate
T1 construct: made in house; host or cells: CDK2: insect cells (baculovirus); cyclin A: E. coli
In short: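 Radiometric filter assay of CDK2/proteolyzed cyclin A (baculovirus-expressed human CDK2, 10 or 19 nM) phosphorylating an Rb fragment with 25 μM [³²P/³³P]ATP in pH 7.4 HEPES, 2% DMSO, at 30 °C for 60 or 75 min under initial-rate conditions. Library compounds screened at 30 nM for % inhibition; apparent Ki from concentration series fit to competitive or tight-binding inhibition equations.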

human CDK4/cyclin D3 = molecular target: T2, human CDK4/cyclin D3 (Homo sapiens, UniProt P11802); assay: Inhibition of CDK4/cyclin D retinoblastoma kinase activity (Ki; % inhibition); type: biochemical; conditions: for Ki: apparent Ki, CDK4/cyclin D3, Rb substrate
T2 construct: made in house; host or cells: insect cells co-infected with baculovirus vectors
In short: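 Insect-cell-expressed CDK4 with truncated cyclin D3 (1-264), 5 nM, phosphorylating His-tagged Rb fragment (386-928) with 25 μM [32/33P]ATP at pH 7.4, 30 °C, 20 min (60 min for tight binders). Filter capture, phosphorimager read; % inhibition at 30 nM compound, Ki from competitive or tight-binding fits.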

HCT-116 cell line = assay: Inhibition of cell growth, MTT tetrazolium salt assay; type: cell-based; conditions: for IC50: Homo sapiens, HCT-116, 120 h, MTT, three to five days
In short: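 HCT-116 cells in McCoy's 5A were dosed 4 h after plating with compounds in 0.5% DMSO and grown 3–5 days at 37 °C. Then 0.2 mg/mL MTT was added for 4 h and formazan absorbance read at 540 nm. IC50/IC90 came from semi-log plots against DMSO-only controls.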

[1] = HCT-116 cells, 0.25 μM compound

T2 sequence (P11802 whole entry): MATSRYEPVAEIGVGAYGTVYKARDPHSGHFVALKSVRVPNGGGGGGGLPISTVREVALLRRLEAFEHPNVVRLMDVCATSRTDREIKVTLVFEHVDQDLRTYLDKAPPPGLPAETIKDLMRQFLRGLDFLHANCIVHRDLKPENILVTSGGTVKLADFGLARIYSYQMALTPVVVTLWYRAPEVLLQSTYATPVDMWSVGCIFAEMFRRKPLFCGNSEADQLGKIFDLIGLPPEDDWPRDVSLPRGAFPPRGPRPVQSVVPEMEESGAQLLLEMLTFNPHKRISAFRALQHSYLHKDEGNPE
T2 sequence (P30281 1-264 partner limits assumed): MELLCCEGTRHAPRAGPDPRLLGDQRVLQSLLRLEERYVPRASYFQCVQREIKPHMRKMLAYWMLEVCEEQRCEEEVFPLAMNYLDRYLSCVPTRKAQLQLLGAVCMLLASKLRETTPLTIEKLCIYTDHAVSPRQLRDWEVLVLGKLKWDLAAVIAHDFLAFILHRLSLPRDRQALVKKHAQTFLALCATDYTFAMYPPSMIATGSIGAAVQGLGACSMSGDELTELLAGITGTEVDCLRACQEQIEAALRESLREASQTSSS

SMILES	CDK2 % Inhibition at 0.03 μM (CDK2/cyclin A; 0.03 μM compound)	CDK4 % Inhibition at 0.03 μM (human CDK4/cyclin D3; 0.03 μM compound)	HCT-116 % Inhibition at 0.1 μM (HCT-116 cell line; HCT-116 cells, 0.1 μM compound)	HCT-116 % Inhibition at 0.25 μM (HCT-116 cell line; [1])	other results
CC(C)CC(C)NC(=O)c1ccc(Nc2nc(N)c(C(=O)c3c(F)cccc3F)s2)cc1 (centres unmarked) [Example G125]	–	–	–	–	CDK2 % Inhibition at 0.03 μM (CDK2/cyclin A; at 0.03 μM): 3%; CDK4 % Inhibition at 0.03 μM (human CDK4/cyclin D3; at 0.03 μM): 9%; HCT-116 % Inhibition at 0.1 μM (HCT-116 cell line; HCT-116, at 0.1 μM): 13%; HCT-116 % Inhibition at 0.25 μM (HCT-116 cell line; HCT-116, at 0.25 μM): 59%
Nc1nc(Nc2ccc(C(=O)NCCNc3ccc([N+](=O)[O-])cn3)cc2)sc1C(=O)c1c(F)cccc1F [Example G242]	43%	49%	34%	69%	–
Cc1cccc(CN(C)C(=O)c2ccc(Nc3nc(N)c(C(=O)c4c(F)cccc4F)s3)cc2)n1 [Example G315]	−1%	11%	7%	50%	–
Nc1nc(Nc2ccc(C(=O)N3CCSCC3)cc2)sc1C(=O)c1c(F)cccc1F [Example G26]	–	–	–	–	CDK2 % Inhibition at 0.03 μM (CDK2/cyclin A; at 0.03 μM): 3%; CDK4 % Inhibition at 0.03 μM (human CDK4/cyclin D3; at 0.03 μM): 13%; HCT-116 % Inhibition at 0.25 μM (HCT-116 cell line; HCT-116, at 0.25 μM): 53%
CCCCN(C)C(=O)c1ccc(Nc2nc(N)c(C(=O)c3c(F)cccc3F)s2)cc1 [Example G218]	8%	19%	11%	52%	–
Nc1nc(Nc2ccc(C(=O)Nc3ccc4nc[nH]c4c3)cc2)sc1C(=O)c1c(F)cccc1F [Example G100]	–	–	–	–	CDK2 % Inhibition at 0.03 μM (CDK2/cyclin A; at 0.03 μM): 13%; CDK4 % Inhibition at 0.03 μM (human CDK4/cyclin D3; at 0.03 μM): 22%; HCT-116 % Inhibition at 0.1 μM (HCT-116 cell line; HCT-116, at 0.1 μM): 27%; HCT-116 % Inhibition at 0.25 μM (HCT-116 cell line; HCT-116, at 0.25 μM): 89%
Cc1ccc(CNC(=O)c2ccc(Nc3nc(N)c(C(=O)c4c(F)cccc4F)s3)cc2)o1 [Example G250]	39%	39%	31%	72%	–
CCCc1ccc(NC(=O)c2ccc(Nc3nc(N)c(C(=O)c4c(F)cccc4F)s3)cc2)cc1 [Example G204]	6%	10%	19%	49%	–
Nc1nc(Nc2ccc(C(=O)NCc3cccc(Cl)c3)cc2)sc1C(=O)c1c(F)cccc1F [Example G324]	28%	26%	5%	60%	–
CN1CCCC[C@H]1CNC(=O)c1ccc(Nc2nc(N)c(C(=O)c3c(F)cccc3F)s2)cc1 [Example A43, 4-[4-Amino-5-(2,6-difluoro-benzoyl)-thiazol-2-ylamino]-N-(1-methyl-piperidin-2S-yl-methyl)-benzamide]	–	–	–	–	Ki (CDK2/cyclin A): 109 nM; Ki (human CDK4/cyclin D3): 13 nM; IC50 (HCT-116 cell line): 580 nM
COc1ccc(C)c(NC(=O)c2ccc(Nc3nc(N)c(C(=O)c4c(F)cccc4F)s3)cc2)c1 [Example A19, 4-[4-Amino-5-(2,6-difluoro-benzoyl)-thiazol-2-ylamino]-N-(5-methoxy-2-methyl-phenyl)-benzamide]	–	–	–	–	Ki (CDK2/cyclin A): 64 nM; Ki (human CDK4/cyclin D3): 105 nM; IC50 (HCT-116 cell line): 110 nM
CCN(Cc1ccccc1)C(=O)c1ccc(Nc2nc(N)c(C(=O)c3c(F)cccc3F)s2)cc1 [Example G209]	9%	16%	9%	50%	–
Nc1nc(Nc2ccc(C(=O)N(CCCO)Cc3ccccn3)cc2)sc1C(=O)c1c(F)cccc1F [Example G243]	18%	11%	31%	40%	–
CCN(CCNC(=O)c1ccc(Nc2nc(N)c(C(=O)c3c(F)cccc3F)s2)cc1)c1cccc(C)c1 [Example G226]	48%	44%	15%	56%	–
CCCC(C)NC(=O)c1ccc(Nc2nc(N)c(C(=O)c3c(F)cccc3F)s2)cc1 (centres unmarked) [Example G163]	–	–	–	–	CDK2 % Inhibition at 0.03 μM (CDK2/cyclin A; at 0.03 μM): 16%; CDK4 % Inhibition at 0.03 μM (human CDK4/cyclin D3; at 0.03 μM): 21%; HCT-116 % Inhibition at 0.1 μM (HCT-116 cell line; HCT-116, at 0.1 μM): 0%; HCT-116 % Inhibition at 0.25 μM (HCT-116 cell line; HCT-116, at 0.25 μM): 67%
CN1CC(CNC(=O)c2ccc(Nc3nc(N)c(C(=O)c4c(F)cccc4F)s3)cc2)C1 [Example A75, 4-[4-Amino-5-(2,6-difluoro-benzoyl)-thiazol-2-ylamino]-N-(1-methyl-azetidin-3-ylmethyl)-benzamide]	–	–	–	–	Ki (CDK2/cyclin A): 7.3 nM; Ki (human CDK4/cyclin D3): 51 nM; IC50 (HCT-116 cell line): 1900 nM
Nc1nc(Nc2ccc(C(=O)NCCc3c[nH]c4ccccc34)cc2)sc1C(=O)c1c(F)cccc1F [Example G271]	32%	27%	8%	49%	–
NC(=O)c1ccc(NC(=O)c2ccc(Nc3nc(N)c(C(=O)c4c(F)cccc4F)s3)cc2)cc1 [Example G85]	–	–	–	–	CDK2 % Inhibition at 0.03 μM (CDK2/cyclin A; at 0.03 μM): 7%; CDK4 % Inhibition at 0.03 μM (human CDK4/cyclin D3; at 0.03 μM): 6%; HCT-116 % Inhibition at 0.25 μM (HCT-116 cell line; HCT-116, at 0.25 μM): 56%
CC1CC(C)CN(C(=O)c2ccc(Nc3nc(N)c(C(=O)c4c(F)cccc4F)s3)cc2)C1 (centres unmarked) [Example G273]	−33%	−2%	17%	45%	–
COc1cccc(CNC(=O)c2ccc(Nc3nc(N)c(C(=O)c4c(F)cccc4F)s3)cc2)c1 [Example G246]	32%	35%	20%	62%	–
Nc1nc(Nc2ccc(C(=O)NC3CCc4ccccc43)cc2)sc1C(=O)c1c(F)cccc1F (centres unmarked) [Example G95]	–	–	–	–	CDK2 % Inhibition at 0.03 μM (CDK2/cyclin A; at 0.03 μM): 12%; CDK4 % Inhibition at 0.03 μM (human CDK4/cyclin D3; at 0.03 μM): 18%; HCT-116 % Inhibition at 0.1 μM (HCT-116 cell line; HCT-116, at 0.1 μM): 32%; HCT-116 % Inhibition at 0.25 μM (HCT-116 cell line; HCT-116, at 0.25 μM): 63%
CC1(C)CCC(CNC(=O)c2ccc(Nc3nc(N)c(C(=O)c4c(F)cccc4F)s3)cc2)N1 (centres unmarked) [Example A48, 4-[4-Amino-5-(2,6-difluoro-benzoyl)-thiazol-2-ylamino]-N-(5,5-dimethyl-pyrrolidin-2RS-yl-methyl)-benzamide Hydrochloride Salt]	–	–	–	–	Ki (CDK2/cyclin A): 55 nM; Ki (human CDK4/cyclin D3): 5 nM; IC50 (HCT-116 cell line): 580 nM
Nc1nc(Nc2ccc(C(=O)NC3CCN(Cc4ccccc4)C3)cc2)sc1C(=O)c1c(F)cccc1F (centres unmarked) [Example G381]	–	–	–	–	CDK2 % Inhibition at 0.03 μM (CDK2/cyclin A; 0.03 μM compound, 0.03 µM): 5%; CDK4 % Inhibition at 0.03 μM (human CDK4/cyclin D3; 0.03 μM compound, 0.03 µM): 38%; HCT-116 % Inhibition at 0.1 μM (HCT-116 cell line; HCT-116 cells, 0.1 μM compound, 0.1 µM): 43%; HCT-116 % Inhibition at 0.25 μM (HCT-116 cell line; HCT-116 cells, 0.25 μM compound, 0.25 µM): 88%
Nc1nc(Nc2ccc(C(=O)NCCc3ccncc3)cc2)sc1C(=O)c1c(F)cccc1F [Example G268]	−11%	2%	26%	63%	–
Cc1ccc(NC(=O)c2ccc(Nc3nc(N)c(C(=O)c4c(F)cccc4F)s3)cc2)nc1 [Example G352]	4%	0%	24%	64%	–
CC[C@H](C)[C@@H](CO)NC(=O)c1ccc(Nc2nc(N)c(C(=O)c3c(F)cccc3F)s2)cc1 [Example G327]	−7%	11%	8%	55%	–
CN(C)CCNC(=O)c1ccc(Nc2nc(N)c(C(=O)c3c(Cl)cccc3Cl)s2)cc1 [Example B4, 4-[4-Amino-5-(2,6-dichloro-benzoyl)-thiazol-2-ylamino]-N-(2-dimethylamino-ethyl)-benzamide]	–	–	–	–	Ki (CDK2/cyclin A): 220 nM; Ki (human CDK4/cyclin D3): 8 nM; IC50 (HCT-116 cell line): 520 nM

Source: patent publication US6720346B2, “Thiazole benzamide derivatives and pharmaceutical compositions for inhibiting cell proliferation” (Agouron Pharmaceuticals, Inc., priority 2001, dated 2004)
